From PubChem BioAssay AID1963973 (Molecular Pharmacology Branch, DTP, NCI, 2024)

System: 883617-216-R-J1-PDC tumor spheroids, viability
Assay: Anticancer human tumor 883617-216-R-J1-PDC patient-derived bladder carcinoma cell line growth inhibition [PI3K]
Settings: spheroids with HUVEC and MSC; for viability, T/C: stronger effect = lower value
How it was run: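 Tumor cells were combined with HUVEC and MSCs into spheroids, then dosed with PI3K-inhibitor combinations over half-log ranges capped near clinical Cmax or 10 microM.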

[1] = curve of first compound, second compound 0.0316 µM
[2] = curve of first compound, second compound 0.1 µM
[3] = curve of first compound, second compound 0.316 µM
[4] = curve of first compound, second compound 1 µM
[5] = curve of first compound, second compound 3.16 µM
[6] = curve of first compound, second compound 10 µM
[7] = second compound 0.0316 µM, first compound 0.0316 µM
[8] = second compound 0.0316 µM, first compound 0.1 µM
[9] = second compound 0.0316 µM, first compound 0.316 µM
[10] = second compound 0.0316 µM, first compound 1 µM
[11] = second compound 0.1 µM, first compound 0.0316 µM
[12] = second compound 0.1 µM, first compound 0.1 µM
[13] = second compound 0.1 µM, first compound 0.316 µM
[14] = second compound 0.1 µM, first compound 1 µM
[15] = second compound 0.316 µM, first compound 0.0316 µM
[16] = second compound 0.316 µM, first compound 0.1 µM
[17] = second compound 0.316 µM, first compound 0.316 µM
[18] = second compound 0.316 µM, first compound 1 µM
[19] = second compound 1 µM, first compound 0.0316 µM
[20] = second compound 1 µM, first compound 0.1 µM
[21] = second compound 1 µM, first compound 0.316 µM
[22] = second compound 1 µM, first compound 1 µM
[23] = second compound 3.16 µM, first compound 0.0316 µM
[24] = second compound 3.16 µM, first compound 0.1 µM
[25] = second compound 3.16 µM, first compound 0.316 µM
[26] = second compound 3.16 µM, first compound 1 µM
[27] = second compound 10 µM, first compound 0.0316 µM
[28] = second compound 10 µM, first compound 0.1 µM
[29] = second compound 10 µM, first compound 0.316 µM
[30] = second compound 10 µM, first compound 1 µM
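Note: spheroids exposed to agents for 7 days before the viability read.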

Work on `CNC(=O)c1ccc(N2C(=S)N(c3ccc(C#N)c(C(F)(F)F)c3)C(=O)C2(C)C)cc1F` + Cc1nc(NC(=O)N2CCCC2C(N)=O)sc1-c1ccnc(C(C)(C)C(F)(F)F)c1 yielded an IC50 [1] of over 10000 nM, an IC50 [2] of over 10000 nM and an IC50 [3] of under 31.6 nM. For the same compound, the IC50 [4] was under 31.6 nM, the IC50 [5] was under 31.6 nM and the IC50 [6] was under 31.6 nM. For the same compound, the viability, T/C [7] was 94.3%, the viability, T/C [8] was 75.6% and the viability, T/C [9] was 86.2%. The viability, T/C [10] was 82.5%, the viability, T/C (second compound 0.0316 µM, first compound 3.16 µM) was 87.8% and the viability, T/C (second compound 0.0316 µM, first compound 10 µM) was 63.4%. For the same compound, the viability, T/C [11] was 74%, the viability, T/C [12] was 67.2% and the viability, T/C [13] was 81.8%. It also gave a viability, T/C [14] of 74.7%, a viability, T/C (second compound 0.1 µM, first compound 3.16 µM) of 63.6% and a viability, T/C (second compound 0.1 µM, first compound 10 µM) of 73.7%. For the same compound, the viability, T/C [15] was 48.6%, the viability, T/C [16] was 49.1% and the viability, T/C [17] was 46.7%. It also gave a viability, T/C [18] of 45.7%, a viability, T/C (second compound 0.316 µM, first compound 3.16 µM) of 53.6% and a viability, T/C (second compound 0.316 µM, first compound 10 µM) of 45.6%. The viability, T/C [19] was 31%, the viability, T/C [20] was 27.3% and the viability, T/C [21] was 33.1%. It also gave a viability, T/C [22] of 32.4%, a viability, T/C (second compound 1 µM, first compound 3.16 µM) of 25.9% and a viability, T/C (second compound 1 µM, first compound 10 µM) of 31.7%. The viability, T/C [23] was 15.9%, the viability, T/C [24] was 15.3% and the viability, T/C [25] was 17.6%. For the same compound, the viability, T/C [26] was 16.6%, the viability, T/C (second compound 3.16 µM, first compound 3.16 µM) was 15.7% and the viability, T/C (second compound 3.16 µM, first compound 10 µM) was 14.3%. It also gave a viability, T/C [27] of 8.45%, a viability, T/C [28] of 7.75% and a viability, T/C [29] of 8.14%. It also gave a viability, T/C [30] of 7.47%, a viability, T/C (second compound 10 µM, first compound 3.16 µM) of 8.35% and a viability, T/C (second compound 10 µM, first compound 10 µM) of 6.73%.
`CC(Cn1ccc(-c2ccc(C#N)c(Cl)c2)n1)NC(=O)c1cc(C(C)O)[nH]n1` (stereo not given) was tested, and the viability, T/C (compound 0.1 µM) was 90.8% [middle of 4 runs], the viability, T/C (compound 0.316 µM) was 104% [middle of 4 runs] and the viability, T/C (compound 1 µM) was 95.5% [middle of 4 runs]. The viability, T/C (compound 3.16 µM) was 110% [middle of 4 runs], the viability, T/C (compound 10 µM) was 102% [middle of 4 runs] and the IC50 (curve of compound) was over 10000 nM.
Work on `CCN1CCN(Cc2ccc(Nc3ncc(F)c(-c4cc(F)c5nc(C)n(C(C)C)c5c4)n3)nc2)CC1` + CC(Nc1ncnc2nc[nH]c12)c1cc2cccc(Cl)c2c(=O)n1-c1ccccc1 yielded an IC50 [1] of over 1000 nM, an IC50 [2] of over 1000 nM and an IC50 [3] of 582 nM. It also gave an IC50 [4] of 282 nM, an IC50 [5] of 31.9 nM and an IC50 [6] of 3.37 nM. It also gave a viability, T/C (second compound 0.0316 µM, first compound 0.00316 µM) of 91.4%, a viability, T/C (second compound 0.0316 µM, first compound 0.01 µM) of 79.4% and a viability, T/C [7] of 79.2%. It also gave a viability, T/C [8] of 65.7%, a viability, T/C [9] of 56.3% and a viability, T/C [10] of 51.3%. It also gave a viability, T/C (second compound 0.1 µM, first compound 0.00316 µM) of 89.3%, a viability, T/C (second compound 0.1 µM, first compound 0.01 µM) of 88.8% and a viability, T/C [11] of 71.6%. It also gave a viability, T/C [12] of 60.2%, a viability, T/C [13] of 64.1% and a viability, T/C [14] of 50.7%. For the same compound, the viability, T/C (second compound 0.316 µM, first compound 0.00316 µM) was 87.5%, the viability, T/C (second compound 0.316 µM, first compound 0.01 µM) was 78.4% and the viability, T/C [15] was 60.8%. The viability, T/C [16] was 67.8%, the viability, T/C [17] was 46% and the viability, T/C [18] was 49.6%. The viability, T/C (second compound 1 µM, first compound 0.00316 µM) was 69.6%, the viability, T/C (second compound 1 µM, first compound 0.01 µM) was 69.4% and the viability, T/C [19] was 59.3%. The viability, T/C [20] was 52.2%, the viability, T/C [21] was 54.8% and the viability, T/C [22] was 40.2%. For the same compound, the viability, T/C (second compound 3.16 µM, first compound 0.00316 µM) was 72.5%, the viability, T/C (second compound 3.16 µM, first compound 0.01 µM) was 61.9% and the viability, T/C [23] was 50.3%. It also gave a viability, T/C [24] of 40.7%, a viability, T/C [25] of 40.1% and a viability, T/C [26] of 35.2%. It also gave a viability, T/C (second compound 10 µM, first compound 0.00316 µM) of 51.3%, a viability, T/C (second compound 10 µM, first compound 0.01 µM) of 34.8% and a viability, T/C [27] of 34%. It also gave a viability, T/C [28] of 30.8%, a viability, T/C [29] of 28.1% and a viability, T/C [30] of 27%.
